“Also recorded” adds a separate entry of the source.
How the values were obtained:
[1] = biological target: T1, PSAM-GlyR in calretinin neurons in the dorsal horn lamina II (Homo sapiens, UniProt P23415+P36544, L141F); experiment: Inflammatory pain models in Calr^Cre mice expressing PSAM-GlyR in the dorsal horn; assay type: in vivo, mouse; conditions: 30 mg/kg i.p.
T1 construct: plasmid from Addgene (Sternson); host or cells: mouse dorsal horn neurons transduced with Cre-dependent AAV2/8 (Tlx3^Cre, CCK^Cre or Calr^Cre mice)
Source text: Methods. Animals: All animals were kept on a standard 12:12 light/dark cycle in micro-isolator caging racks (Allentown Caging) with food and water provided ad libitum. Mouse strains obtained from Jackson Laboratories include C57Bl/6J (JAX #000664), Calr^Cre (JAX #010774) and CCK^Cre (JAX #012706). Adeno-associated viruses (AAV2/8) used in these experiments: hSyn-Flex-rev-PSAM^L141F-GlyR-IRES-eGFP (7^12 vg/ml) and hSyn-Flex-rev-PSAM^L141F,Y115F-GlyR-IRES-eGFP (1.7^13 vg/ml) were custom made by UNC Vector core based on plasmid material developed by Scott Sternson and provided by Addgene. The hSyn-Flex-rev-PSAM^L141F-GlyR-IRES-eGFP (7^12 vg/ml) was used in all experiments except FIG. 8 (e,f). For these experiments, hSyn-Flex-rev-PSAM^L141F,Y115F-GlyR-IRES-eGFP (1.7^13 vg/ml) was used. Methods including: intra-spinal virus injections, paw withdrawal threshold to von Frey filaments, to cotton swab, Hargreaves, pinprick and acute pain behaviors licking, guarding, flicking are all as previously described (Peirs, C. et al. Dorsal Horn Circuits for Persistent Mechanical Pain. Neuron 87, 797-812 (2015); Seal, R. P. et al. Injury-induced mechanical hypersensitivity requires C-low threshold mechanoreceptors. Nature 462, 651-655, (2009)); For paw withdrawal threshold to pressure: mice were lightly restrained by hand such that their rear legs were allowed to freely hang. Using a Pressure Application Measurement device (Ugo Basile) the hind paw was grasped between the experimenter's forefinger and thumb (with pressure transducer on the thumb), and force was slowly applied to the paw until the mouse struggled or flicked its limb (paw withdrawal threshold, PWT). The final force in grams was recorded. Each mouse was tested on the left and right paw for three trials with a ten-minute inter-trial interval between applications, and the three results averaged for each paw. Injury Models including incision, complete Freund's adjuvant, spared nerve injury tibial and sural models, carrageenan, methylglyoxal and multi-dose streptozotocin are as previously described (Peirs, C. et al. Dorsal Horn Circuits for Persistent Mechanical Pain. Neuron 87, 797-812 (2015); Seal, R. P. et al. Injury-induced mechanical hypersensitivity requires C-low threshold mechanoreceptors. Nature 462, 651-655, (2009); Decosterd, I. and Woolf, C. J. Spared nerve injury: an animal model of persistent peripheral neuropathic pain. Pain 87, 149-158 (2000); Bierhaus, A. et al. Methylglyoxal modification of Nav1.8 facilitates nociceptive neuron firing and causes hyperalgesia in diabetic neuropathy. […] Quantification and Statistical Analysis: all data are reported as mean±SEM. […]

[2] = biological target: T2, PSAM-GlyR in CCK^+ dorsal horn neurons (Homo sapiens, UniProt P23415+P36544, L141F); experiment: Persistent pain models in mice expressing PSAM-GlyR in CCK^+ dorsal horn neurons; assay type: in vivo, mouse; conditions: 30 mg/kg i.p., PSAM-GlyR in CCK^+ neurons
T2 construct: plasmid from Addgene (Sternson); host or cells: mouse dorsal horn neurons transduced with Cre-dependent AAV2/8 (Tlx3^Cre, CCK^Cre or Calr^Cre mice)
Source text: Methods. Animals: All animals were kept on a standard 12:12 light/dark cycle in micro-isolator caging racks (Allentown Caging) with food and water provided ad libitum. Mouse strains obtained from Jackson Laboratories include C57Bl/6J (JAX #000664), Calr^Cre (JAX #010774) and CCK^Cre (JAX #012706). Adeno-associated viruses (AAV2/8) used in these experiments: hSyn-Flex-rev-PSAM^L141F-GlyR-IRES-eGFP (7^12 vg/ml) and hSyn-Flex-rev-PSAM^L141F,Y115F-GlyR-IRES-eGFP (1.7^13 vg/ml) were custom made by UNC Vector core based on plasmid material developed by Scott Sternson and provided by Addgene. The hSyn-Flex-rev-PSAM^L141F-GlyR-IRES-eGFP (7^12 vg/ml) was used in all experiments except FIG. 8 (e,f). For these experiments, hSyn-Flex-rev-PSAM^L141F,Y115F-GlyR-IRES-eGFP (1.7^13 vg/ml) was used. Methods including: intra-spinal virus injections, paw withdrawal threshold to von Frey filaments, to cotton swab, Hargreaves, pinprick and acute pain behaviors licking, guarding, flicking are all as previously described (Peirs, C. et al. Dorsal Horn Circuits for Persistent Mechanical Pain. Neuron 87, 797-812 (2015); Seal, R. P. et al. Injury-induced mechanical hypersensitivity requires C-low threshold mechanoreceptors. Nature 462, 651-655, (2009)); For paw withdrawal threshold to pressure: mice were lightly restrained by hand such that their rear legs were allowed to freely hang. Using a Pressure Application Measurement device (Ugo Basile) the hind paw was grasped between the experimenter's forefinger and thumb (with pressure transducer on the thumb), and force was slowly applied to the paw until the mouse struggled or flicked its limb (paw withdrawal threshold, PWT). The final force in grams was recorded. Each mouse was tested on the left and right paw for three trials with a ten-minute inter-trial interval between applications, and the three results averaged for each paw. Injury Models including incision, complete Freund's adjuvant, spared nerve injury tibial and sural models, carrageenan, methylglyoxal and multi-dose streptozotocin are as previously described (Peirs, C. et al. Dorsal Horn Circuits for Persistent Mechanical Pain. Neuron 87, 797-812 (2015); Seal, R. P. et al. Injury-induced mechanical hypersensitivity requires C-low threshold mechanoreceptors. Nature 462, 651-655, (2009); Decosterd, I. and Woolf, C. J. Spared nerve injury: an animal model of persistent peripheral neuropathic pain. Pain 87, 149-158 (2000); Bierhaus, A. et al. Methylglyoxal modification of Nav1.8 facilitates nociceptive neuron firing and causes hyperalgesia in diabetic neuropathy. Nat Med 18, 926-933 (2012); Cavanaugh, D. J. et al. Distinct subsets of unmyelinated primary sensory fibers mediate behavioral responses to noxious thermal and mechanical stimuli. Proc Natl Acad Sci USA 106, 9075-9080, (2009)). Chemogenetic Activation of PSAM-GlyR Receptor: Behavior thresholds were performed as described above in AAV8-hSyn-DIO-PSAM-GlyR-IRES-GFP injected mice. PSEM^89S at 30 mg/kg was injected intraperitoneally 15 minutes prior to testing. Immunohistochemistry was performed as previously described (Peirs, C. et al. Dorsal Horn Circuits for Persistent Mechanical Pain. Neuron 87, 797-812 (2015); Seal, R. P. et al. Injury-induced mechanical hypersensitivity requires C-low threshold mechanoreceptors. Nature 462, 651-655 (2009)). α-bungarotoxin conjugated to Alexa-647 (1:1000; ThermoFisher B35450), α-bungarotoxin conjugated to Alexa-488 (1:1000; ThermoFisher B13422). Imaging: Spinal cord sections were imaged with a confocal laser-scanning microscope (Nikon A1R) and Nikon Elements software using 405-, 488-, 561- and 640 nm excitation laser light. In order to suppress emission crosstalk, the microscope was configured to perform all scanning in sequential mode. Z-series were scanned at 20× magnification with an oil immersion lens and a z-step of 5.0 μm. Quantification and Statistical Analysis: all data are reported as mean±SEM. For acute behaviors, a two-tailed Student's t-test was used. […]

T1 sequence (P36544+P23415 fused P36544:L141F): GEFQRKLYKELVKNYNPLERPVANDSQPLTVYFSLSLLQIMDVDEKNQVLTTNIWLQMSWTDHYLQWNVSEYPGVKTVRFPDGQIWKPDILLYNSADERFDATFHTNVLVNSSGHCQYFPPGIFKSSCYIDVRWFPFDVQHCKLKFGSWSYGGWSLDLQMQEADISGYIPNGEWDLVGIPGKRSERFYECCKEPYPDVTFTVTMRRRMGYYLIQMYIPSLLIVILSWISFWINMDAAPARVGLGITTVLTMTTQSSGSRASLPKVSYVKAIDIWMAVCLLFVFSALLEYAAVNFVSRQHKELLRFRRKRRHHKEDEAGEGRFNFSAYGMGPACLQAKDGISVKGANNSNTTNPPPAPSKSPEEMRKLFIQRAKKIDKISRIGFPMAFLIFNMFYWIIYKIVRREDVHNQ
T2 sequence (P36544+P23415 fused P36544:L141F): as above

COc1ccc(OC)c(C(=O)NC2CN3CCC2CC3)c1 (stereo not shown) [PSEM^89S]
mechanical allodynia (punctate), carrageenan model ([1]; 24 hours after carrageenan, p=0.0074): reverses; also recorded: significantly reversed
mechanical allodynia (punctate), CFA model ([1]; 5 days after CFA, ipsilateral hindpaw, p=0.0026): reverses; also recorded: complete reversal
dynamic mechanical allodynia, incision model ([1]; p=0.0001): reverses
punctate mechanical allodynia, incision model ([1]; p=0.0028): reverses
dynamic allodynia, carrageenan pain model ([2]; p=0.0001): significantly reversed
dynamic allodynia, sural-SNI model ([2]; p=0.0001): significantly reversed
heat hypersensitivity, carrageenan pain model ([2]; p=0.0002): significantly reversed
punctate allodynia, sural-SNI model ([2]; p=0.0003): significantly reversed
dynamic allodynia, CFA model ([2]; p=0.0016): markedly reversed; also recorded: significantly reversed
punctate allodynia, carrageenan pain model ([2]; p=0.0017): significantly reversed
punctate allodynia, CFA model ([2]; p=0.0034): markedly reversed; also recorded: significantly reversed
punctate allodynia, tibial-SNI model ([2]; p=0.0054): markedly reversed
heat hypersensitivity, CFA model ([2]; p=0.0368): markedly reversed; also recorded: significantly reversed

From US11713470B2, “Targeted gene therapies for pain and other neuro-related disorders” (University of Pittsburgh—Of the Commonwealth System of …, priority 2017, dated 2023)
